# Target: HIV-1 pNL4-3 integrase (Human immunodeficiency virus type 1 group M subtype B (isolate NY5) (HIV-1), UniProt P12497)
# Experiment: Determination of enzyme (HIV integrase) inhibitory activity
# Type: biochemical
# Details: calculated from inhibition rate (fluorescence)
# In short: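 Full-length pNL4-3 integrase from E. coli (0.75 μM stock) reacted 60 min at 37° C with compound and biotinylated donor DNA bound to streptavidin plates, in MOPS buffer with 5 mM MgCl2 and 10% DMSO. Digoxigenin-labelled target DNA (25 nM stock) then added for 20 min; strand transfer read by peroxidase anti-digoxigenin fluorescence (Ex 325/Em 420 nm).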
row,SMILES,IC50
1,COC[C@H]1CN(C(C)C)C(=O)c2c(O)c(=O)c(-c3nnc(Cc4ccc(F)c(Cl)c4)s3)cn21 [Example 243],7.6 nM
2,COC[C@H]1CN(C(C)C)C(=O)c2c(O)c(=O)c(-c3nnc(Cc4ccc(C(F)(F)F)cc4)s3)cn21 [Example 244],74 nM
3,CC(C)N1C[C@@](C)(C(=O)NC2CC2)n2cc(-c3ncc(Cc4ccc(F)cc4)s3)c(=O)c(O)c2C1=O [Example 245],8.1 nM
4,CC(C)N1C[C@@](C)(C(=O)NCC2CC2)n2cc(-c3ncc(Cc4ccc(F)cc4)s3)c(=O)c(O)c2C1=O [Example 246],8.4 nM
5,COC[C@@H]1[C@H](C)n2cc(-c3ncc(Cc4ccc(F)cc4)s3)c(=O)c(O)c2C(=O)N1C(C)C [Example 247],10 nM
6,CCN1C[C@@](C)(C(=O)N(C)C)n2cc(-c3ncc(Cc4ccc(F)cc4)s3)c(=O)c(O)c2C1=O [Example 248],14 nM
7,CCNC(=O)[C@]1(C)CN(CC)C(=O)c2c(O)c(=O)c(-c3ncc(Cc4ccc(F)cc4)s3)cn21 [Example 249],12 nM
8,COC[C@H]1CN(C(C)C)C(=O)c2c(O)c(=O)c(-c3nnc(Cc4ccc(F)c(OC)c4)s3)cn21 [Example 250],17 nM
9,COC[C@H]1CN(C(C)C)C(=O)c2c(O)c(=O)c(-c3nnc(Cc4ccc(F)cc4C4CC4)s3)cn21 [Example 251],11 nM
10,CCN1C(=O)c2c(O)c(=O)c(-c3ncc(Cc4ccc(F)cc4)s3)cn2C[C@@]1(C)C(=O)NC [Example 252],9.2 nM
11,CCN1C(=O)c2c(O)c(=O)c(-c3ncc(Cc4ccc(F)cc4)s3)cn2C[C@@]1(C)C(=O)N(C)C [Example 253],7.7 nM
12,CCN1C(=O)c2c(O)c(=O)c(-c3ncc(Cc4ccc(F)cc4)s3)cn2C[C@@]1(C)C(=O)N1CCCC1 [Example 254],7.6 nM
13,C[C@]1(C(=O)N2CCC2)CN(CC2CC2)C(=O)c2c(O)c(=O)c(-c3ncc(Cc4ccc(F)cc4)s3)cn21 [Example 255],9 nM
14,COC[C@H]1[C@@H](C)N(C(C)C)C(=O)c2c(O)c(=O)c(-c3nnc(Cc4ccc(F)cc4)s3)cn21 [Example 256],8.2 nM
15,COC[C@@H]1[C@H](C)n2cc(-c3nnc(Cc4ccc(F)cc4)s3)c(=O)c(O)c2C(=O)N1CC1CC1 [Example 257],9.1 nM
16,CCN1C(=O)c2c(O)c(=O)c(-c3nnc(Cc4ccc(F)cc4)s3)cn2[C@@H](COC)[C@H]1C [Example 258],9.3 nM
17,COC[C@H]1[C@@H](C)N(CC2CC2)C(=O)c2c(O)c(=O)c(-c3nnc(Cc4ccc(F)cc4)s3)cn21 [Example 259],9 nM
18,CCN1C(=O)c2c(O)c(=O)c(-c3ncc(Cc4ccc(F)cc4)s3)cn2[C@@H](C)[C@H]1COC [Example 260],12 nM
19,CCN1C(=O)c2c(O)c(=O)c(-c3ncc(Cc4ccc(F)cc4)s3)cn2[C@@H](COC)[C@H]1C [Example 261],11 nM
20,COC1CN(C(=O)[C@@]2(C)CN(CC3CC3)C(=O)c3c(O)c(=O)c(-c4ncc(Cc5ccc(F)cc5)s4)cn32)C1 [Example 262],10 nM
21,CCN1C[C@](C)(C(=O)N2CC(OC)C2)n2cc(-c3ncc(Cc4ccc(F)cc4)s3)c(=O)c(O)c2C1=O [Example 263],9 nM
22,CN(C)C(=O)[C@]1(C)CN(C)C(=O)c2c(O)c(=O)c(-c3ncc(Cc4ccc(F)cc4)s3)cn21 [Example 264],8.5 nM

row,SMILES,IC50
1,CCN(C)C(=O)[C@]1(C)CN(C)C(=O)c2c(O)c(=O)c(-c3ncc(Cc4ccc(F)cc4)s3)cn21 [Example 265],9.3 nM
2,CN1C[C@@](C)(C(=O)N2CCC2)n2cc(-c3ncc(Cc4ccc(F)cc4)s3)c(=O)c(O)c2C1=O [Example 266],11 nM
3,CCNC(=O)[C@]1(C)CN(C2CC2)C(=O)c2c(O)c(=O)c(-c3ncc(Cc4ccc(F)cc4)s3)cn21 [Example 267],11 nM
4,C[C@@]1(C(=O)N2CCC2)CN(C2CC2)C(=O)c2c(O)c(=O)c(-c3ncc(Cc4ccc(F)cc4)s3)cn21 [Example 268],15 nM
5,CCN1C[C@](C)(CO)n2cc(-c3nnc(Cc4ccc(F)cc4)s3)c(=O)c(O)c2C1=O [Example 269],9.4 nM
6,CCN1C(=O)c2c(O)c(=O)c(-c3nnc(Cc4ccc(F)cc4)s3)cn2C[C@@]1(C)COC [Example 270],9.5 nM
7,CCN1C[C@@](C)(C(=O)N2CCC2)n2cc(-c3ncc(Cc4ccc(F)cc4)s3)c(=O)c(O)c2C1=O [Example 271],11 nM
8,COC1CN(C(=O)CC2CN(C(C)C)C(=O)c3c(O)c(=O)c(-c4ncc(Cc5ccc(F)cc5F)s4)cn32)C1 (stereo not drawn) [Example 272],8.9 nM
9,C[C@@H](C1CC1)N1C[C@](C)(C(=O)N2CCC2)n2cc(-c3ncc(Cc4ccc(F)cc4)s3)c(=O)c(O)c2C1=O [Example 273],14 nM
10,COC1CN(C(=O)[C@@]2(C)CN([C@@H](C)C3CC3)C(=O)c3c(O)c(=O)c(-c4ncc(Cc5ccc(F)cc5)s4)cn32)C1 [Example 274],12 nM
11,C[C@@H](C1CC1)N1C[C@](C)(C(=O)N(C)C)n2cc(-c3ncc(Cc4ccc(F)cc4)s3)c(=O)c(O)c2C1=O [Example 275],14 nM
12,CCNC(=O)[C@@]1(C)CN([C@@H](C)C2CC2)C(=O)c2c(O)c(=O)c(-c3ncc(Cc4ccc(F)cc4)s3)cn21 [Example 276],16 nM
13,COC[C@H]1CN(C(C)C)C(=O)c2c(O)c(=O)c(-c3nnc(Cc4cc(OC)c(F)cc4F)s3)cn21 [Example 277],12 nM
14,CC[C@@H]1Cn2cc(-c3nnc(Cc4ccc(F)cc4)s3)c(=O)c(O)c2C(=O)N1C(C)C [Example 278],9.9 nM
15,C[C@@H]1Cn2cc(-c3nnc(Cc4ccc(F)cc4)s3)c(=O)c(O)c2C(=O)N1CC1CC1 [Example 279],6.3 nM
16,C[C@H](C1CC1)N1C[C@](C)(C(=O)N2CCC2)n2cc(-c3ncc(Cc4ccc(F)cc4)s3)c(=O)c(O)c2C1=O [Example 280],16 nM
17,COC1CN(C(=O)[C@@]2(C)CN([C@H](C)C3CC3)C(=O)c3c(O)c(=O)c(-c4ncc(Cc5ccc(F)cc5)s4)cn32)C1 [Example 281],16 nM
18,C[C@H](C1CC1)N1C[C@](C)(C(=O)N(C)C)n2cc(-c3ncc(Cc4ccc(F)cc4)s3)c(=O)c(O)c2C1=O [Example 282],15 nM
19,CCNC(=O)[C@@]1(C)CN([C@H](C)C2CC2)C(=O)c2c(O)c(=O)c(-c3ncc(Cc4ccc(F)cc4)s3)cn21 [Example 283],18 nM
20,CCN1C(=O)c2c(O)c(=O)c(-c3nnc(Cc4ccc(F)cc4)s3)cn2[C@@H](COC)[C@@H]1C [Example 284],11 nM
21,COC[C@H]1[C@H](C)N(C(C)C)C(=O)c2c(O)c(=O)c(-c3nnc(Cc4ccc(F)cc4)s3)cn21 [Example 285],11 nM
22,CCN1C(=O)c2c(O)c(=O)c(-c3nnc(Cc4ccc(F)cc4)s3)cn2C[C@H]1C(C)C [Example 286],7.8 nM

row,SMILES,IC50
1,CCN1C(=O)c2c(O)c(=O)c(-c3nnc(Cc4ccc(F)cc4)s3)cn2C[C@@H]1C(C)C [Example 287],8 nM
2,COC[C@@H]1[C@@H](C)N(C(C)C)C(=O)c2c(O)c(=O)c(-c3nnc(Cc4ccc(F)cc4)s3)cn21 [Example 288],8.8 nM
3,CCN1C(=O)c2c(O)c(=O)c(-c3nnc(Cc4ccc(F)cc4)s3)cn2[C@H](COC)[C@H]1C [Example 289],10 nM
4,CC(C)N1C[C@](C)(C(=O)N2CCC(=O)C2)n2cc(-c3ncc(Cc4ccc(F)cc4)s3)c(=O)c(O)c2C1=O [Example 290],14 nM
5,CC[C@@H]1Cn2cc(-c3nnc(Cc4ccc(F)cc4)s3)c(=O)c(O)c2C(=O)N1CC [Example 291],8.7 nM
6,CCN1C(=O)c2c(O)c(=O)c(-c3ncc(Cc4ccc(F)cc4)s3)cn2C[C@]1(C)C(=O)NC [Example 292],7.3 nM
7,CCN1C(=O)c2c(O)c(=O)c(-c3ncc(Cc4ccc(F)cc4)s3)cn2C[C@]1(C)C(=O)N(C)C [Example 293],9.6 nM
8,CCN1C(=O)c2c(O)c(=O)c(-c3ncc(Cc4ccc(F)cc4)s3)cn2C[C@]1(C)C(=O)N1CCCC1 [Example 294],11 nM
9,CCC(CC)N1C(=O)c2c(O)c(=O)c(-c3nnc(Cc4ccc(F)cc4)s3)cn2C[C@H]1COC [Example 295],12 nM
10,CCN1C[C@](C)(COCCOC)n2cc(-c3nnc(Cc4ccc(F)cc4)s3)c(=O)c(O)c2C1=O [Example 296],19 nM
11,COCCOC[C@@]1(C)CN(C2CC2)C(=O)c2c(O)c(=O)c(-c3nnc(Cc4ccc(F)cc4)s3)cn21 [Example 297],20 nM
12,CCN1C(=O)c2c(O)c(=O)c(-c3nnc(Cc4ccc(F)cc4)s3)cn2[C@@H](C)[C@@H]1COC [Example 298],9 nM
13,COC[C@H]1[C@H](C)n2cc(-c3nnc(Cc4ccc(F)cc4)s3)c(=O)c(O)c2C(=O)N1C(C)C [Example 299],9.8 nM
14,CCN1C(=O)c2c(O)c(=O)c(-c3nnc(CCc4ccc(F)cc4F)s3)cn2C[C@H]1COC [Example 300],9 nM
15,CCN1C(=O)c2c(O)c(=O)c(-c3nnc(Cc4ccc(F)cc4)s3)cn2CC1(COC)COC [Example 301],8 nM
16,COC[C@H]1CN([C@H](C)C2CC2)C(=O)c2c(O)c(=O)c(-c3nnc(Cc4ccc(F)cc4)s3)cn21 [Example 302],9.9 nM
17,CC[C@@H]1Cn2cc(-c3nnc(Cc4ccc(F)cc4)s3)c(=O)c(O)c2C(=O)N1CC1CC1 [Example 303],5.8 nM
18,COC[C@@H]1[C@@H](C)n2cc(-c3nnc(Cc4ccc(F)cc4)s3)c(=O)c(O)c2C(=O)N1C(C)C [Example 304],9.1 nM
19,CCN1C(=O)c2c(O)c(=O)c(-c3nnc(Cc4ccc(F)cc4)s3)cn2[C@H](C)[C@H]1COC [Example 305],9.5 nM
20,CC(C)N1C(=O)c2c(O)c(=O)c(-c3nnc(Cc4ccc(F)cc4)s3)cn2C[C@@]1(C)C(=O)N1CCCC1 [Example 306],10 nM
21,CCNC(=O)[C@]1(C)Cn2cc(-c3nnc(Cc4ccc(F)cc4)s3)c(=O)c(O)c2C(=O)N1C(C)C [Example 307],11 nM
22,CC(C)NC(=O)[C@]1(C)Cn2cc(-c3nnc(Cc4ccc(F)cc4)s3)c(=O)c(O)c2C(=O)N1C(C)C [Example 308],13 nM

# Reference: US10065950B2, “Substituted thiazoles as HIV integrase inhibitors” (Japan Tobacco Inc., priority 2010, dated 2018)
